Source: ChEMBL document CHEMBL3046328, “Ligand-based pharmacophore detection, screening of potential pharmacophore and docking studies, to get effective glycogen synthase kinase inhibitors” (Med Chem Res, 2013)

How the values were obtained:
[1] = molecular target: T1, Glycogen synthase kinase-3 (Homo sapiens, UniProt P49840+P49841); assay: Inhibition of GSK3 (unknown origin); assay type: protein assay
[2] = molecular target: Mitogen-activated protein kinase 1 (Homo sapiens, UniProt P28482); assay: Inhibition of ERK2 (unknown origin)
Mitogen-activated protein kinase 1, sequence (P28482 whole entry): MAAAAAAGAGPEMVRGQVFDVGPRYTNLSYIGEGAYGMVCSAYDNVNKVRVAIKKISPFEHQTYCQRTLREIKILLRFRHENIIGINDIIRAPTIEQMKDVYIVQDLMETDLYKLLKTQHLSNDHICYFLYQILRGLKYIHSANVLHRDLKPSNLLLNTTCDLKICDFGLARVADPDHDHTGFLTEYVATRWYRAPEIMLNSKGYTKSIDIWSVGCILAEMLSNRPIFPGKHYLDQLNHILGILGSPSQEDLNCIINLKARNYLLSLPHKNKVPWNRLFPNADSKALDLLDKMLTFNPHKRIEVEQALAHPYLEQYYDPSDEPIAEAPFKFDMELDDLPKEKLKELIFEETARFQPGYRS

Aurora kinase A = molecular target: T2, Aurora kinase A (Homo sapiens, UniProt O14965); assay: Inhibition of Aurora2 (unknown origin)
T2 sequence (O14965 whole entry): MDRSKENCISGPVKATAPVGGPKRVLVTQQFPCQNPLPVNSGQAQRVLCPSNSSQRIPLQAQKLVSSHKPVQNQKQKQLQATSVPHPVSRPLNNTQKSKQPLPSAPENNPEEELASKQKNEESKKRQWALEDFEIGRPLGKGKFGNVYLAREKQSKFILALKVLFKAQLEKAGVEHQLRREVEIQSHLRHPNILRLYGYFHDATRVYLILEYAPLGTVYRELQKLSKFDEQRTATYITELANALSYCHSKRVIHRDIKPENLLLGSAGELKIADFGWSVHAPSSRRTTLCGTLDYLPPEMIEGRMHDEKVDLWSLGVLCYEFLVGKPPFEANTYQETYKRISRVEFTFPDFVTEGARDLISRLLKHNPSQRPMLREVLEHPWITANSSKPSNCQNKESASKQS

[3] = molecular target: Proto-oncogene tyrosine-protein kinase Src (Homo sapiens, UniProt P12931); assay: Inhibition of SRC (unknown origin)
Proto-oncogene tyrosine-protein kinase Src, sequence (P12931 2-536 limits assumed): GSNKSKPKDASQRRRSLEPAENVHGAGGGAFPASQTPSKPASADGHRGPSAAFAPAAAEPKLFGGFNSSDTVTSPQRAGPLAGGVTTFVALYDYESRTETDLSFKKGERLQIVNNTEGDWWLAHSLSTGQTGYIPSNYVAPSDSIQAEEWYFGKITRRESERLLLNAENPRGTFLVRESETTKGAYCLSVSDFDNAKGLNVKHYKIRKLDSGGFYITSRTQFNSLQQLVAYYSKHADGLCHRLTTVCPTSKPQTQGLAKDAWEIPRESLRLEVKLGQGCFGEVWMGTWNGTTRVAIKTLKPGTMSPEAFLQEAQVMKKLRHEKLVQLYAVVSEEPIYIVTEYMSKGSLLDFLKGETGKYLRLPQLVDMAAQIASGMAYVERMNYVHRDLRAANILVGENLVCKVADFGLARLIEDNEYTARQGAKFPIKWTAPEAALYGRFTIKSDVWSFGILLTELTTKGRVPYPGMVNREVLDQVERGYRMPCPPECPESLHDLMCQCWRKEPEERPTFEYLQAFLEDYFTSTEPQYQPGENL

[4] = molecular target: Glycogen synthase kinase-3 beta (Homo sapiens, UniProt P49841); assay: Inhibition of GSK3beta (unknown origin)
Glycogen synthase kinase-3 beta, sequence (P49841 whole entry): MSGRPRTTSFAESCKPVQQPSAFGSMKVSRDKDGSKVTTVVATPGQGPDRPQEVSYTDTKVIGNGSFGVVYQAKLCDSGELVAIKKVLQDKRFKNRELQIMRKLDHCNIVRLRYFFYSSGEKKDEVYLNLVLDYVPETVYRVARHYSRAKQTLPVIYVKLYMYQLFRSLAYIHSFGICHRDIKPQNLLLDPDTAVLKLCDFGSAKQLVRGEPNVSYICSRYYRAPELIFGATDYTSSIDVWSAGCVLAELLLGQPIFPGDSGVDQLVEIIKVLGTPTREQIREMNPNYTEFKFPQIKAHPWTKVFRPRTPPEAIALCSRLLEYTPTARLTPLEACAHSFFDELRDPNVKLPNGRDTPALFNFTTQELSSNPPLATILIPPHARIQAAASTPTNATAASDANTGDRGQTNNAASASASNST

[5] = molecular target: T1, Glycogen synthase kinase-3; assay: Inhibition of GSK3 (unknown origin) at 1 uM; assay type: protein assay

T1 sequence (P49840 whole entry, looked up): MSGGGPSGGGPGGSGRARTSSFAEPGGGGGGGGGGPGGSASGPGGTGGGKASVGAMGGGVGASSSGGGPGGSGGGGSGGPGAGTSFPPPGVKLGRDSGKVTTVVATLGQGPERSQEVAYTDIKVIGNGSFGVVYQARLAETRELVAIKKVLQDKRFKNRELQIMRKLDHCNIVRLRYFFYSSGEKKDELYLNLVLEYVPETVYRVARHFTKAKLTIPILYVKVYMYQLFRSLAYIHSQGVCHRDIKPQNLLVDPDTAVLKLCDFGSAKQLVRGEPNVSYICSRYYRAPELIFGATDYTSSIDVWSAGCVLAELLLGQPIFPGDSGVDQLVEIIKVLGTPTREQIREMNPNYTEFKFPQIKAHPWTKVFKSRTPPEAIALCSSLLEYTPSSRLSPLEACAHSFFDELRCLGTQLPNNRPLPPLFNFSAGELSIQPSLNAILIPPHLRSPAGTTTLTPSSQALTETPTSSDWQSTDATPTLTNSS
T1 sequence (P49841 whole entry, looked up): as the sequence (P49841 whole entry) above

Structure (SMILES)	IC50 [1] [µM]	Ki [2] [µM]	Ki [1] [µM]	Ki (Aurora kinase A) [µM]	Ki [3] [µM]	also measured
C[n+]1c2ccccc2[n+]2[nH]c3ccccc3n12	1					
Cc1cccn2cc(CN(Cc3nc4ccccc4c(=O)[nH]3)C(C)C)nc12		1000	< 100	< 100	< 0.1	
CCN(CC)CCCNc1nc2ccccc2c2[nH]c3ccc(OC)cc3c12	1					
Cc1ccc(-c2c[nH]c(C3COCCN3Cc3c[nH]c4ccccc34)n2)cc1 (stereo not given)						IC50 [4]: 0.12 µM
Cc1nc[nH]c1[C@@H]1c2nc[nH]c2CCN1Cc1nc2ccccc2[nH]1		1000	< 100	< 100	< 0.1	
O=[N+]([O-])c1ccc2c(c1)[n+]([O-])c1c3ccccc3[nH]c1[n+]2[O-]		< 1				IC50 (Aurora kinase A): < 5 µM
CCSc1nc2c([nH]1)[nH]c1ccccc12						inhibition [5]: 63%
O=C(N=c1[nH]c2ccccc2[nH]1)NC[C@H]1CCC[C@@H](CNC(=O)N=c2[nH]c3ccccc3[nH]2)C1	1					
CCN(Cc1cn2cccc(C)c2n1)Cc1nc2ccccc2c(=O)[nH]1	< 10					
Cc1nc[nH]c1[C@H]1c2nc[nH]c2CCN1Cc1nc2ccccc2[nH]1		1000	< 100	< 100	< 0.1	
